{"source": "paper PMC7308192", "about": "(Journal of biomolecular structure & dynamics, 2019)", "molecules": {"B1": {"name": "Twinstrep-AtGPA1 (natural protein, Arabidopsis, UniProt P18064 1-383, looked up)", "chain": "MGLLCSRSRHHTEDTDENTQAAEIERRIEQEAKAEKHIRKLLLLGAGESGKSTIFKQIKLLFQTGFDEGELKSYVPVIHANVYQTIKLLHDGTKEFAQNETDSAKYMLSSESIAIGEKLSEIGGRLDYPRLTKDIAEGIETLWKDPAIQETCARGNELQVPDCTKYLMENLKRLSDINYIPTKEDVLYARVRTTGVVEIQFSPVGENKKSGEVYRLFDVGGQRNERRKWIHLFEGVTAVIFCAAISEYDQTLFEDEQKNRMMETKELFDWVLKQPCFEKTSFMLFLNKFDIFEKKVLDVPLNVCEWFRDYQPVSSGKQEIEHAYEFVKKKFEELYYQNTAPDRVDRVFKIYRTTALDQKLVKKTFKLVDETLRRRNLLEAGLL"}, "B2": {"name": "XLG2 C terminal Gα domain (residues from 435 to 861) (domain or fragment, Arabidopsis, UniProt C6KIE6 435-861, looked up)", "chain": "CAVFSLPVPPASSAVEPYDVPLYEQKMLNKLLLIGSEKGGATTIYKQARSLYNVSFSLEDRERIKFIIQTNLYTYLAMVLEAHERFEKEMSNDQSSGNVGDETSAKPGNSINPRLKHFSDWVLKEKEDGNLKIFPPSSRENAQTVADLWRVPAIQATYKRLRDTLPRNAVYFLERILEISRSEYDPSDMDILQAEGLSSMEGLSCVDFSFPSTSQEESLESDYQHDTDMKYQLIRLNPRSLGENWKLLEMFEDADLVIFCVSLTDYAENIEDGEGNIVNKMLATKQLFENMVTHPSLANKRFLLVLTKFDLLEEKIEEVPLRTCEWFEDFNPLISQNQTSRHNPPMAQRAFHYIGYKFKRLYDSILEPVNMRGRSFKPKLFVCQVSLESDTVDNALRYAREILKWHVEETSMFQEMSTTSIEASSSS"}}, "key": {"[1]": {"biological_target": "T1, XLG2 (Arabidopsis thaliana, UniProt C6KIE6)", "T1 sequence (C6KIE6 435-861)": "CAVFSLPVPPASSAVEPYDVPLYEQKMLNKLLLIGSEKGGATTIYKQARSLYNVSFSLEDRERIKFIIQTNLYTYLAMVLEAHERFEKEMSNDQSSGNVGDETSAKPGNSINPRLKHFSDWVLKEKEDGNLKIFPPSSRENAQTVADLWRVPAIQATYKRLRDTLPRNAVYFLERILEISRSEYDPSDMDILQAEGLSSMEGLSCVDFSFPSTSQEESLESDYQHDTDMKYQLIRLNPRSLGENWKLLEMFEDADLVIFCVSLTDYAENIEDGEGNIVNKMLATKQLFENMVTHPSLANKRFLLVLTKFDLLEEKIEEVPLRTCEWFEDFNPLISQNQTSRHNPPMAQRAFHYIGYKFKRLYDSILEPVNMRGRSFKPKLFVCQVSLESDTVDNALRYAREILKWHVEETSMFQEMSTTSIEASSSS", "experiment": "Microscale thermophoresis", "assay_type": "binding"}, "[2]": {"biological_target": "T2, AtGPA1 (Arabidopsis thaliana, UniProt P18064)", "T2 sequence (P18064 1-383)": "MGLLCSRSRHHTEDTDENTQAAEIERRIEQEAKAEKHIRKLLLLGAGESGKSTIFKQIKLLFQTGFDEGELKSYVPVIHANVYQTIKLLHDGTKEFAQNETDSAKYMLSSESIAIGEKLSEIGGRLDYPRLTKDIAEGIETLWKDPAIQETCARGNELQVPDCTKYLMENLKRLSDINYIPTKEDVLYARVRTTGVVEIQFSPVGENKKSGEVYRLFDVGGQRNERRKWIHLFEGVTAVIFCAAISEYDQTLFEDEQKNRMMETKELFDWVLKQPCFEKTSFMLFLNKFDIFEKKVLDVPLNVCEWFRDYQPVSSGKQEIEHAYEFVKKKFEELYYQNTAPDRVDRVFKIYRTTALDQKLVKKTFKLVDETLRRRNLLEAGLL", "experiment": "Microscale thermophoresis", "assay_type": "binding"}, "[3]": {"biological_target": "T2, AtGPA1", "conditions": "read-out: Kd for GTPγS binding to AtGPA1 using a radioactive ligand, ref Johnston, Willard, Kimple, Siderovski, 2008; cited from earlier work"}, "[4]": {"biological_target": "animal G subunits", "conditions": "read-out: range of Kds reported for animal G subunits; ref Malinski, Zera, Angleson, & Wensel, 1996; cited from earlier work"}, "[5]": {"biological_target": "T3, Arabidopsis Gβγ dimer (AGB1/AGG1) (Arabidopsis, UniProt P49177 1-377; Q9FDX9 1-98)", "T3 sequence (looked up) 1": "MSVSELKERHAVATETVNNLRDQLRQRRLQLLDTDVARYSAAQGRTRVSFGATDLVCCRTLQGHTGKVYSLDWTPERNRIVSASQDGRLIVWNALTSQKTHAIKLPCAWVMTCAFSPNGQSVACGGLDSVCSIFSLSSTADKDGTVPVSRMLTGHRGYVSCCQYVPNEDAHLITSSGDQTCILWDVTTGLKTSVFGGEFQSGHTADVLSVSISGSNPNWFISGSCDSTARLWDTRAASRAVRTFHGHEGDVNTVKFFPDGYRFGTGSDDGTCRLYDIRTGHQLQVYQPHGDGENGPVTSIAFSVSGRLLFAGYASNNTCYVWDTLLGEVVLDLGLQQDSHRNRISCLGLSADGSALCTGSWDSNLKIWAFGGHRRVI", "T3 sequence (looked up) 2": "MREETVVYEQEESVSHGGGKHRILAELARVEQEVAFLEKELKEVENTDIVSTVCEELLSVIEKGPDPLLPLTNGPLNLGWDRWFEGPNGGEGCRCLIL", "experiment": "MST"}, "[6]": {"biological_target": "B1", "experiment": "MST"}, "[7]": {"biological_target": "B2", "experiment": "MST"}, "[8]": {"biological_target": "B1", "experiment": "MST", "remark": "listed apart in the source"}, "[9]": {"conditions": "Kd, nucleotide binding to XLG2, MST, 25°C, in the presence of Mg2+"}, "[10]": {"conditions": "Kd, nucleotide binding to XLG2 in the presence of Ca2+, MST, Ca2+ instead of Mg2+"}, "[11]": {"conditions": "Kd, nucleotide binding to AtGPA1, MST, 25°C, polyHis-tagged AtGPA1"}}, "note": "Several values for one entry are separate records, joined by “and”; a condition that tells them apart may be missing. Identical values can stand only once. Like-named read-outs stand apart in the source and are kept apart here.", "data": [{"molecule": "Nc1nc2c(ncn2[C@@H]2O[C@H](COP(=O)(O)OP(=O)(O)O)[C@@H](O)[C@H]2O)c(=O)[nH]1", "note": "[GDP, guanosine diphosphate]", "values": [{"measurement": "affinity of XLG2 lower than of AtGPA1", "setting": "[1]; Kd XLG2 vs AtGPA1", "result": "~ 6 fold"}, {"measurement": "Kd", "setting": "[1]; [9]", "result": "177000 ± 33000", "unit": "nM"}, {"measurement": "Kd", "setting": "[1]; [10]", "result": "~28000", "unit": "nM"}, {"measurement": "Kd", "setting": "[2]; [11]", "result": "28000 ± 12000", "unit": "nM"}]}, {"molecule": "Nc1nc2c(ncn2[C@@H]2O[C@H](COP(=O)(O)OP(=O)(O)OP(O)(O)=S)[C@@H](O)[C@H]2O)c(=O)[nH]1", "note": "[GTPγS]", "values": [{"measurement": "Kd", "setting": "[3]", "result": "~2", "unit": "nM"}, {"measurement": "affinity of XLG2 lower than that of AtGPA1 / canonical Gα subunits", "setting": "[1]; Kd XLG2 vs AtGPA1, same conditions", "result": 100, "unit": "times"}, {"measurement": "Kd", "setting": "[1]; Kd, nucleotide binding to XLG2, MST, 25°C, Mg2+", "result": "2350 ± 460", "unit": "nM"}, {"measurement": "Kd", "setting": "[1]; [9]", "result": "~2000", "unit": "nM"}, {"measurement": "Kd", "setting": "[1]; [10]", "result": "~186000", "unit": "nM"}, {"measurement": "Kd", "setting": "[4]", "result": "10 to 100", "unit": "nM"}, {"measurement": "Kd", "setting": "[2]; [11]", "result": "~21 nM and 21 nM"}]}, {"molecule": "B1", "values": [{"measurement": "Kd", "setting": "[5]", "result": 2000, "unit": "nM"}]}, {"molecule": "B2", "values": [{"measurement": "Kd", "setting": "[5]", "result": 700, "unit": "nM"}]}, {"molecule": "RGS+Ct (AtRGS1, residues from 284 to 459) (domain or fragment, Arabidopsis, UniProt Q8H1F2 284-459, looked up) KEEFRPVDPNEPLDKLLLNKRFRHSFMEFADSCYAGETLHFFEEVYEHGKIPEDDSIRRIYMARHIMEKFIVAGAEMELNLSHKTRQEILTTQDLTHTDLFKNALNEVMQLIKMNLVRDYWSSIYFIKFKEEESCHEAMHKEGYSFSSPRLSSVQGSDDPFYQEHMSKSSRCSSPG", "values": [{"measurement": "Kd", "setting": "[6]", "result": 125, "unit": "nM"}, {"measurement": "Kd", "setting": "[7]", "result": 198, "unit": "nM"}, {"measurement": "Kd", "setting": "[8]", "result": 67, "unit": "nM"}]}, {"molecule": "RGS1-C domain: recombinant C-terminal RGS domain of Arabidopsis AtRGS1, residues from 284 to 459 (protein, left off: His, end not stated, cleaved | GST, end not stated, cleaved) KEEFRPVDPNEPLDKLLLNKRFRHSFMEFADSCYAGETLHFFEEVYEHGKIPEDDSIRRIYMARHIMEKFIVAGAEMELNLSHKTRQEILTTQDLTHTDLFKNALNEVMQLIKMNLVRDYWSSIYFIKFKEEESCHEAMHKEGYSFSSPRLSSVQGSDDPFYQEHMSKSSRCSSPG", "values": [{"measurement": "affinity of XLG2 for RGS domain lower than AtGPA1 in its transition state", "setting": "[1]; XLG2 vs AtGPA1 in transition state", "result": "about 2 times"}]}, {"molecule": "Gβγ: Arabidopsis Gβγ dimer (AGB1/AGG1), His tagged, expressed in Sf9 cells (protein, left off: His6, N-terminal, state not stated | His6, end not stated, state not stated) chain 1: MSVSELKERHAVATETVNNLRDQLRQRRLQLLDTDVARYSAAQGRTRVSFGATDLVCCRTLQGHTGKVYSLDWTPERNRIVSASQDGRLIVWNALTSQKTHAIKLPCAWVMTCAFSPNGQSVACGGLDSVCSIFSLSSTADKDGTVPVSRMLTGHRGYVSCCQYVPNEDAHLITSSGDQTCILWDVTTGLKTSVFGGEFQSGHTADVLSVSISGSNPNWFISGSCDSTARLWDTRAASRAVRTFHGHEGDVNTVKFFPDGYRFGTGSDDGTCRLYDIRTGHQLQVYQPHGDGENGPVTSIAFSVSGRLLFAGYASNNTCYVWDTLLGEVVLDLGLQQDSHRNRISCLGLSADGSALCTGSWDSNLKIWAFGGHRRVI chain 2: MREETVVYEQEESVSHGGGKHRILAELARVEQEVAFLEKELKEVENTDIVSTVCEELLSVIEKGPDPLLPLTNGPLNLGWDRWFEGPNGGEGCRCLIL", "values": [{"measurement": "Kd", "setting": "[1]; read-out: Kd, Gβγ binding to XLG2 Gα domain, MST, column head: Gα in GDP state", "result": "~700 nM and 700 nM"}, {"measurement": "Kd", "setting": "[2]; read-out: Kd, Gβγ binding to AtGPA1, Gα in GDP state, MST, Gα in GDP state", "result": "~2000 nM and 2000 nM"}]}]}
